This is an account of results in patent US11351218B2, “Composition for preventing or treating glioblastoma comprising Platycodon grandiflorum A. De Candolle, Scutellaria baicalensis, Phellodendron amurense Ruprecht or Rubus coreanus” (University-Industry Cooperation Group of Kyung Hee …, priority 2019, dated 2022).

What all share (type): cell-based, human
Data set [1] concerns U87MG and U373MG cells. Kind of data set: mRFP-GFP-LC3 tandem reporter (autolysosome formation) in GBM cells. The following applies: PD 10 μM or Rapa 1 μM, 24 hours. As to the method: Cells stably expressing mRFP-GFP-LC3 were incubated with PD (10 μM) or Rapa (1 μM) for 24 hours, and then analyzed by confocal microscopy. The merged images (yellow) show an overlap between GFP-LC3 (green) and mRFP-LC3 (red). The panels on the right are higher-magnification images of the boxed regions.
In order to examine whether PD induces accumulation of autophagosomes by inhibiting their maturation into autolysosomes, a tandem-tagged fluorescent reporter, mRFP-GFP-LC3, was used. The GFP fluorescence of the fusion protein is rapidly quenched in lysosomal acidic conditions, whereas the RFP fluorescence is relatively stable. The yellow dots in the merged image are indicative of autophagsomes and […] dots correspond to autolysosomes. The mRFP-GFP-LC3 plasmids were transfected into U87MG and U373MG cells, treated with PD for 24 hours, and subjected to confocal microscopy.

The subject of data set [2] is U87MG and U373MG cells. Briefly: Clonogenic assay, GBM cells. As to conditions: PD 10 μM or 20 μM, 7 days. As to the method:
FIGS. 19A and 19B show the results that MβCD restores PD-mediated decrease in cell viability. […] Data shown represent the means of quintuplicate measurements which were repeated three times. The results are presented as a percentage of control (means±SD).
Approximately 2×10^3 cells were seeded into each 6-well plate and then treated as described in FIG. 19. After 7 days, the cells were washed with PBS and stained with 0.5% crystal violet.
Furthermore, as can be confirmed in FIG. 19B, a colony formation assay was performed to confirm the effects of MβCD on PD-mediated GBM cell death.

Data set [3] has as its system PARP, caspase-3, BCL-2 and BAX. Briefly: Immunoblot of apoptosis markers (PARP, caspase-3, BCL-2, BAX) in GBM cells. The following applies: PD, 24 hours. As for the experimental part:
FIGS. 7A and 7B show the results that PD induces non-apoptotic cell death. […] GAPDH was used as a loading control. […] Data shown represent the means of quintuplicate measurements which were repeated three times. The results are presented as a percentage of control (means±SD).
(§1) Cells treated with the concentrations and materials described in FIGS. 1-3B, 7, 8, 10, 13, 16, 18, and 20 were lysed in buffer containing 20 mM Tris-HCl (pH 7.5), 150 mM NaCl, 1 mM EDTA, 1 mM Na2EDTA, 1 mM EGTA, 1% NP-40, 1% sodium deoxycholate, 1 mM Na3VO4, 1 mM MPI, 1 mM PMSF, and PI cocktails for 15 to 20 minutes on ice. Cell lysates were separated by SDS-PAGE and transferred to nitrocellulose membranes. Immunodetection was performed with the following primary antibodies: rabbit anti-LC3B, rabbit anti-cathepsin B, rabbit-anti GAPDH (Cell Signaling Technology, Danvers, Mass.), mouse anti-SQSTM1/p62, and goat anti-cathepsin D (Santa CruzKPL, Gaithersburg, Md., USA) were incubated at room temperature for 1 hour. The protein bands were detected with ECL western Blotting Substrate (Thermo Fisher Scientific, Waltham, Mass., USA).
Therefore, whether PD-mediated autophagy inhibition promotes apoptosis in GBM cells was examined by western blot analysis. Activation of caspase-3 and cleavage of its substrate, PARP, are hallmarks of apoptosis. […]
For orientation: A western blot detects proteins with antibodies after separation by electrophoresis.

Data set [4] concerns U87MG and U373MG cells. Briefly: WST1 cell viability assay, GBM cells. As to the method:
FIGS. 6A and 6B show the results that PD induces a decrease in cell viability and vacuole formation. […] Data shown represent the means of quintuplicate measurements which were repeated three times. The results are presented as a percentage of control (means±SD).
Cell cytotoxicity was assessed by WST1 assay. U87 and U373 cells were each seeded in a 96-well plate (5×10^3 cells/well) and treated with different concentrations of platycodin D (PD). Then, cells were incubated with a WST1 reagent (Dogen, Seoul, Korea) for 2 hours before reading the plate. Absorbance was measured at 450 nm using an ELISA reader (Versa Max, Molecular Devices, Sunnyvale, Calif., USA).
For orientation: Formazan colour is commonly taken as a measure of viable cells.

For a further data set, the system named is U373 cells. Kind of data set: GFP-LC3B puncta assay (confocal microscopy), U373 cells. The following applies: U373, 10 μM PD, 24 hours. As for the experimental part:
The cells transiently expressing GFP-LC3 (green) were treated with DMSO or PD (10 μM) for 24 hours and analyzed by confocal microscopy. Nuclei were stained with DAPI (blue). Quantification shown on the right graph represents mean GFP-LC3B puncta per cells from three independent experiments±SD.
Cultured cells seeded in plates with microscope coverslips were transfected with a pGFP-LC3B plasmid using Lipofectamine 3000 (Thermo Fisher Scientific) according to the manufacturer's instructions. After the transfection, the cells were fixed with 4% paraformaldehyde (PFA) in phosphate-buffered saline (PBS) at room temperature for 10 minutes. The images were examined under a laser confocal microscope (Zeiss, Oberkochen, Baden-Wurttemberg, Germany).
To confirm the western blot data, the LC3B accumulation in GBM cells was monitored using a confocal microscope. Both U87MG and U373MG cells transfected with a green fluorescent protein (GFP)-tagged LC3 expression plasmid were treated with 10 μM PD for 24 hours and examined under a confocal microscope.

The test system of the next data set is cathepsin B and D. Kind of data set: Immunoblot of cathepsin B and D processing in GBM cells. As to conditions: PD 5 μM and 10 μM, 48 hours. As to the method:
Immunoblot analyses for the processing of endogenous CTSB and CTSD are shown (upper, immature form/lower, mature form of CTSB and CTSD). GAPDH was used as a loading control.
as §1
To confirm whether PD functions as an autophagy inhibitor, the effects of PD on lysosomal proteases, cathepsin B and D, were examined Autophagy is a lysosome-mediated and self-degradative process that requires lysosomal cysteine proteases known as cathepsins. Since pro-cathepsins are cleaved into a mature form in lysosomes, the 33 kD active cleaved form of cathepsins has been commonly used as a marker for lysosomal activity. As can be confirmed in FIG. 13, while the mature forms of cathepsin B and D proteins were decreased, immature forms of those protein were increased after PD treatment in U87MG and U373MG cells, implying that PD suppresses a lysosomal function by downregulating the lysosomal proteolytic activity.

As to `C[C@@H]1O[C@@H](O[C@H]2[C@H](OC(=O)[C@]34CCC(C)(C)C[C@H]3C3=CC[C@@H]5[C@@]6(C)C[C@H](O)[C@H](O[C@@H]7O[C@H](CO)[C@@H](O)[C@H](O)[C@H]7O)C(CO)(CO)[C@@H]6CC[C@@]5(C)[C@]3(C)C[C@H]4O)OC[C@H](O)[C@@H]2O)[C@H](O)[C@H](O)[C@H]1O[C@@H]1OC[C@@H](O)[C@H](O[C@@H]2OC[C@](O)(CO)[C@H]2O)[C@H]1O` [PD, platycodin D], the “mRFP and GFP dots of mRFP-GFP-LC3” value in the data set with U87MG and U373MG cells [1] is “GFP-positive dots were retained and colocalized with mRFP dots”. In addition, the colony-forming ability result with U87MG and U373MG cells [2] is recorded as “abolished”. Moreover, in data set [3], the “caspase-3 activation and PARP cleavage” value is listed as “no significant induction”; the “expressions of Bcl2 and BAX” value is recorded as “not changed”. Moreover, the “viability of GBM cells” value with U87MG and U373MG cells [4] (10 μM PD, 3 days) is “reduced the viability”. Besides, in the data set with U87MG and U373MG cells [4] (PD 0-20 μM, 48 hours, dose-dependent), the “percentage of viable cells” value is “significantly decreased”. For the same molecule, in the data set with U87MG and U373MG cells [4] (PD 10 μM, 48 hours, GBM cells, percentage of control), the cell viability entry is “approximately 60%”. For the same molecule, the “fold increase of GFP-LC3 puncta per cell vs DMSO” value in the data set on U373 cells is given as 8.9 fold. Further, the “GFP-LC3 puncta per cell” value in the data set on U373 cells (mean±SD) is on record as 32.84±3.98. Also, in the data set on cathepsin B and D, the “immature forms of cathepsin B and D proteins” value was “increased”; the “mature forms of cathepsin B and D proteins” value is listed as “decreased”.
